Assay results taken from BindingDB's records for doi:10.1016/j.bmcl.2008.08.034 (University of Illinois At Chicago, 2008).

Each molecule was assayed against T1, 1-deoxy-D-xylulose-5-phosphate synthase (Mycobacterium tuberculosis (strain ATCC 25618 / H37Rv), UniProt P9WNS3) (assay: Inhibition of Mycobacterium tuberculosis cloned 1-deoxy-D-xylulose-5-phosphate synthase expressed in Escherichia coli).
T1 sequence (P9WNS3 whole entry): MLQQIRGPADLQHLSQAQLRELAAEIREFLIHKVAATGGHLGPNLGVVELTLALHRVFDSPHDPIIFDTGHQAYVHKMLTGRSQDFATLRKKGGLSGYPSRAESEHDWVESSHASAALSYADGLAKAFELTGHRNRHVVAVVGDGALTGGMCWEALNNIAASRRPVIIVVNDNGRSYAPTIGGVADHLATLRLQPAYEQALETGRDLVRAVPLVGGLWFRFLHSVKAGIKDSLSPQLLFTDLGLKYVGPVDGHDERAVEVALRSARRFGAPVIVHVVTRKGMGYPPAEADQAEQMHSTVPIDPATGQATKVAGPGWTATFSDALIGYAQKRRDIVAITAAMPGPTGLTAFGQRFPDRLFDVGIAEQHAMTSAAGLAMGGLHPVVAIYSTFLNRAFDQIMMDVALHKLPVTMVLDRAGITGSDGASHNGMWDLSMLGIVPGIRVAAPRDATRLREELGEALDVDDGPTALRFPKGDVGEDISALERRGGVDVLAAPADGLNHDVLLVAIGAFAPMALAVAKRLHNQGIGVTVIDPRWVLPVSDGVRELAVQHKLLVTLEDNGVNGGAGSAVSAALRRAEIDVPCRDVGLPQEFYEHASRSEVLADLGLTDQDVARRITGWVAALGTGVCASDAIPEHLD

Structure (SMILES) | IC50 [µM]
Cc1nc2c(-c3ccc(Cl)cc3)c(C(F)(F)F)[nH]n2c(=O)c1Cc1ccccc1 | > 200
CCCc1c(-c2ccccc2)nc2c(-c3ccccc3)c(C)[nH]n2c1=O [2-methyl-3,5-diphenyl-6-propylpyrazolo[1,5-a]pyrimidin-7(4H)-one] | 17.9
Cc1cc(=O)n2[nH]c(C(F)(F)F)c(-c3ccc(Br)cc3)c2n1 [3-(4-bromophenyl)-5-methyl-2-(trifluoromethyl)pyrazolo[1,5-a]pyrimidin-7(4H)-one] | > 200
COCc1cc(O)n2nc(C)c(-c3ccc(Cl)cc3)c2n1 [3-(4-chlorophenyl)-5-(methoxymethyl)-2-methylpyrazolo[1,5-a]pyrimidin-7(4H)-one] | > 200
COCc1cc(=O)n2[nH]cc(-c3ccc(Cl)cc3)c2n1 [3-(4-chlorophenyl)-5-(methoxymethyl)pyrazolo[1,5-a]pyrimidin-7(4H)-one] | > 200
Cc1cc(=O)n2[nH]cc(-c3ccc(Cl)cc3)c2n1 [3-(4-chlorophenyl)-5-methylpyrazolo[1,5-a]pyrimidin-7(4H)-one] | > 200
O=c1cc(CCl)nc2c(-c3ccccc3)c[nH]n12 [5-(chloromethyl)-3-phenylpyrazolo[1,5-a]pyrimidin-7(4H)-one] | > 200
